Results as given in PubChem BioAssay AID2060488 (Molecular Pharmacology Branch, DTP, NCI, 2025).

System: 966289-007-R4-J1-PDC complex spheroid viability
Experiment: Anticancer human tumor 966289-007-R4-J1-PDC patient-derived pancreatic adenocarcinoma cell line growth inhibition [GQUAD]
Conditions: for IC50: curve of first compound; for viability, T/C: stronger effect = lower value
Method in brief: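 Tumor cells were grown as complex spheroids with HUVEC endothelial cells and mesenchymal stem cells as stroma. G-quadruplex stabilizers were combined with targeted agents over half-log dilutions from near the clinical Cmax, or from 10 microM.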

[1] = second compound 0.0316 µM, first compound 0.0316 µM
[2] = second compound 0.0316 µM, first compound 0.316 µM
[3] = second compound 0.1 µM, first compound 0.0316 µM
[4] = second compound 0.1 µM, first compound 0.316 µM
[5] = second compound 0.316 µM, first compound 0.0316 µM
[6] = second compound 0.316 µM, first compound 0.316 µM
[7] = second compound 1 µM, first compound 0.0316 µM
[8] = second compound 1 µM, first compound 0.316 µM
[9] = second compound 3.16 µM, first compound 0.0316 µM
[10] = second compound 3.16 µM, first compound 0.316 µM
[11] = second compound 10 µM, first compound 0.0316 µM
[12] = second compound 10 µM, first compound 0.316 µM
[13] = second compound 0.0316 µM, first compound 0.1 µM
[14] = second compound 0.0316 µM, first compound 1 µM
[15] = second compound 0.0316 µM, first compound 3.16 µM
[16] = second compound 0.0316 µM, first compound 10 µM
[17] = second compound 0.1 µM, first compound 0.1 µM
[18] = second compound 0.1 µM, first compound 1 µM
[19] = second compound 0.1 µM, first compound 3.16 µM
[20] = second compound 0.1 µM, first compound 10 µM
[21] = second compound 0.316 µM, first compound 0.1 µM
[22] = second compound 0.316 µM, first compound 1 µM
[23] = second compound 0.316 µM, first compound 3.16 µM
[24] = second compound 0.316 µM, first compound 10 µM
[25] = second compound 1 µM, first compound 0.1 µM
[26] = second compound 1 µM, first compound 1 µM
[27] = second compound 1 µM, first compound 3.16 µM
[28] = second compound 1 µM, first compound 10 µM
[29] = second compound 3.16 µM, first compound 0.1 µM
[30] = second compound 3.16 µM, first compound 1 µM
[31] = second compound 3.16 µM, first compound 3.16 µM
[32] = second compound 3.16 µM, first compound 10 µM
[33] = second compound 10 µM, first compound 0.1 µM
[34] = second compound 10 µM, first compound 1 µM
[35] = second compound 10 µM, first compound 3.16 µM
[36] = second compound 10 µM, first compound 10 µM
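Further: spheroids exposed to the agents for seven days before readout.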
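Wherever viability, T/C is given: percent viability relative to DMSO vehicle control wells taken as 100%.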

For Cc1[nH]c2ccccc2c1CCNCc1ccc(/C=C/C(=O)NO)cc1 + Cc1[nH]c2ccc(F)cc2c1-c1nc2c3cccnc3c3ncccc3c2[nH]1, the IC50 (second compound 0.0316 µM) was 76 nM, the IC50 (second compound 0.1 µM) was 92.8 nM and the IC50 (second compound 0.316 µM) was 95.8 nM. The IC50 (second compound 1 µM) was 127 nM, the IC50 (second compound 3.16 µM) was 79.7 nM and the IC50 (second compound 10 µM) was 104 nM. It also gave a viability, T/C (second compound 0.0316 µM, first compound 0.000999 µM) of 110%, a viability, T/C (second compound 0.0316 µM, first compound 0.00316 µM) of 104% and a viability, T/C (second compound 0.0316 µM, first compound 0.00999 µM) of 107%. It also gave a viability, T/C [1] of 103%, a viability, T/C (second compound 0.0316 µM, first compound 0.0999 µM) of 33.6% and a viability, T/C [2] of 4.95%. It also gave a viability, T/C (second compound 0.1 µM, first compound 0.000999 µM) of 111%, a viability, T/C (second compound 0.1 µM, first compound 0.00316 µM) of 109% and a viability, T/C (second compound 0.1 µM, first compound 0.00999 µM) of 111%. It also gave a viability, T/C [3] of 105%, a viability, T/C (second compound 0.1 µM, first compound 0.0999 µM) of 46.2% and a viability, T/C [4] of 5.29%. For the same molecule, the viability, T/C (second compound 0.316 µM, first compound 0.000999 µM) was 106%, the viability, T/C (second compound 0.316 µM, first compound 0.00316 µM) was 108% and the viability, T/C (second compound 0.316 µM, first compound 0.00999 µM) was 113%. It also gave a viability, T/C [5] of 107%, a viability, T/C (second compound 0.316 µM, first compound 0.0999 µM) of 47.8% and a viability, T/C [6] of 6.15%. It also gave a viability, T/C (second compound 1 µM, first compound 0.000999 µM) of 98.5%, a viability, T/C (second compound 1 µM, first compound 0.00316 µM) of 103% and a viability, T/C (second compound 1 µM, first compound 0.00999 µM) of 111%. The viability, T/C [7] was 108%, the viability, T/C (second compound 1 µM, first compound 0.0999 µM) was 61.5% and the viability, T/C [8] was 5.78%. The viability, T/C (second compound 3.16 µM, first compound 0.000999 µM) was 107%, the viability, T/C (second compound 3.16 µM, first compound 0.00316 µM) was 114% and the viability, T/C (second compound 3.16 µM, first compound 0.00999 µM) was 117%. For the same molecule, the viability, T/C [9] was 110%, the viability, T/C (second compound 3.16 µM, first compound 0.0999 µM) was 35.4% and the viability, T/C [10] was 5.51%. The viability, T/C (second compound 10 µM, first compound 0.000999 µM) was 110%, the viability, T/C (second compound 10 µM, first compound 0.00316 µM) was 104% and the viability, T/C (second compound 10 µM, first compound 0.00999 µM) was 114%. For the same molecule, the viability, T/C [11] was 93.5%, the viability, T/C (second compound 10 µM, first compound 0.0999 µM) was 52.2% and the viability, T/C [12] was 5.13%.
In the case of COc1cccc2c1C(=O)c1c(O)c3c(c(O)c1C2=O)CC(O)(C(=O)CO)CC3OC1CC(N)C(O)C(C)O1 (stereo not drawn) + Cc1cnc(CNC(=O)c2c(=O)c3ccc(N4CCCN(C)CC4)nc3n3c2sc2ccccc23)cn1, the IC50 (second compound 0.0316 µM) is reported as less than 31.6 nM, the IC50 (second compound 0.1 µM) is reported as less than 31.6 nM and the IC50 (second compound 0.316 µM) is reported as less than 31.6 nM. The IC50 (second compound 1 µM) was less than 31.6 nM, the IC50 (second compound 3.16 µM) was less than 31.6 nM and the IC50 (second compound 10 µM) was less than 31.6 nM. It also gave a viability, T/C [1] of 43.6%, a viability, T/C [13] of 6.62% and a viability, T/C [2] of 2.17%. For the same molecule, the viability, T/C [14] was 0.54%, the viability, T/C [15] was 0.2% and the viability, T/C [16] was 0.39%. The viability, T/C [3] was 14.1%, the viability, T/C [17] was 7.19% and the viability, T/C [4] was 2.36%. The viability, T/C [18] was 0.41%, the viability, T/C [19] was 0.24% and the viability, T/C [20] was 0.54%. For the same molecule, the viability, T/C [5] was 8.14%, the viability, T/C [21] was 4.76% and the viability, T/C [6] was 1.77%. The viability, T/C [22] was 0.41%, the viability, T/C [23] was 0.17% and the viability, T/C [24] was 0.26%. It also gave a viability, T/C [7] of 4.98%, a viability, T/C [25] of 3.35% and a viability, T/C [8] of 1.44%. The viability, T/C [26] was 0.09%, the viability, T/C [27] was 0.13% and the viability, T/C [28] was 0.32%. It also gave a viability, T/C [9] of 3.68%, a viability, T/C [29] of 1.92% and a viability, T/C [10] of 0.11%. It also gave a viability, T/C [30] of 0.05%, a viability, T/C [31] of 0.1% and a viability, T/C [32] of 0.1%. For the same molecule, the viability, T/C [11] was 0.03%, the viability, T/C [33] was 0.08% and the viability, T/C [12] was 0.1%. It also gave a viability, T/C [34] of 0.07%, a viability, T/C [35] of 0.16% and a viability, T/C [36] of 0.24%.
Molecule O=c1[nH]cc(F)c(=O)[nH]1 + Cc1[nH]c2ccc(F)cc2c1-c1nc2c3cccnc3c3ncccc3c2[nH]1 has an IC50 (second compound 0.0316 µM) of 159 nM, an IC50 (second compound 0.1 µM) of 186 nM and an IC50 (second compound 0.316 µM) of 181 nM. It also gave an IC50 (second compound 1 µM) of 164 nM, an IC50 (second compound 3.16 µM) of 150 nM and an IC50 (second compound 10 µM) of 93.4 nM. It also gave a viability, T/C [1] of 111%, a viability, T/C [13] of 74.5% and a viability, T/C [2] of 13.6%. For the same molecule, the viability, T/C [14] was 5.76%, the viability, T/C [15] was 6.03% and the viability, T/C [16] was 6.51%. It also gave a viability, T/C [3] of 112%, a viability, T/C [17] of 92.4% and a viability, T/C [4] of 13.9%. It also gave a viability, T/C [18] of 6.57%, a viability, T/C [19] of 5.93% and a viability, T/C [20] of 6.8%. It also gave a viability, T/C [5] of 95.9%, a viability, T/C [21] of 90.5% and a viability, T/C [6] of 12.1%. It also gave a viability, T/C [22] of 7.51%, a viability, T/C [23] of 5.56% and a viability, T/C [24] of 6.35%. The viability, T/C [7] was 96.3%, the viability, T/C [25] was 76.5% and the viability, T/C [8] was 14.8%. The viability, T/C [26] was 7.21%, the viability, T/C [27] was 6.11% and the viability, T/C [28] was 6.82%. The viability, T/C [9] was 110%, the viability, T/C [29] was 68.8% and the viability, T/C [10] was 15.2%. For the same molecule, the viability, T/C [30] was 9.36%, the viability, T/C [31] was 7.92% and the viability, T/C [32] was 9.72%. It also gave a viability, T/C [11] of 114%, a viability, T/C [33] of 46% and a viability, T/C [12] of 14.6%. It also gave a viability, T/C [34] of 9.18%, a viability, T/C [35] of 6.61% and a viability, T/C [36] of 7.61%.
Work on CC1COCCN1c1cc(-c2ccnn2C)c2ccnc(-c3ccn[nH]3)c2n1 (stereo not drawn) + CN(C)c1ccc(Nc2c3ccc(NC(=O)CCN4CCCC4)cc3nc3cc(NC(=O)CCN4CCCC4)ccc23)cc1 yielded an IC50 (second compound 0.0316 µM) of 213 nM, an IC50 (second compound 0.1 µM) of 228 nM and an IC50 (second compound 0.316 µM) of 214 nM. It also gave an IC50 (second compound 1 µM) of 240 nM, an IC50 (second compound 3.16 µM) of 217 nM and an IC50 (second compound 10 µM) of 143 nM. For the same molecule, the viability, T/C [1] was 113%, the viability, T/C [13] was 88.9% and the viability, T/C [2] was 29.1%. For the same molecule, the viability, T/C [14] was 11.2%, the viability, T/C [15] was 6.12% and the viability, T/C [16] was 3.97%. It also gave a viability, T/C [3] of 113%, a viability, T/C [17] of 97.5% and a viability, T/C [4] of 30.8%. The viability, T/C [18] was 10.2%, the viability, T/C [19] was 5.52% and the viability, T/C [20] was 4.49%. It also gave a viability, T/C [5] of 108%, a viability, T/C [21] of 89.6% and a viability, T/C [6] of 29.3%. The viability, T/C [22] was 11%, the viability, T/C [23] was 5.87% and the viability, T/C [24] was 4.36%. The viability, T/C [7] was 107%, the viability, T/C [25] was 96.2% and the viability, T/C [8] was 35.1%. The viability, T/C [26] was 10.6%, the viability, T/C [27] was 4.68% and the viability, T/C [28] was 4.37%. It also gave a viability, T/C [9] of 110%, a viability, T/C [29] of 94.3% and a viability, T/C [10] of 28.2%. The viability, T/C [30] was 10.7%, the viability, T/C [31] was 6.99% and the viability, T/C [32] was 5.79%. It also gave a viability, T/C [11] of 103%, a viability, T/C [33] of 64.3% and a viability, T/C [12] of 18.2%. For the same molecule, the viability, T/C [34] was 9.04%, the viability, T/C [35] was 5.74% and the viability, T/C [36] was 4.94%.
